The target of the test is C-Raf TR (Δ1-324 deletion mutant with activating mutations) (Homo sapiens (Human), UniProt P04049, Y340E/Y341E). In kind it is biochemical. Particulars: truncated C-Raf (Δ1-324), ATP 3 uM, 10 nM biotinylated MEK1 kinase dead. The procedure:
biotinylated Mek, Kinase dead approximately 10 nM
Pre-incubation time with compounds 30 minutes at room temperature
Reaction time 2 hours at room temperature
Plates were sealed and stored overnight in the dark at room temperature. Plates were counted in a Perkin Elmer Envision instrument.
C-Raf TR (Δ1-324 deletion mutant with activating mutations), sequence (P04049 325-648 Y340E/Y341E): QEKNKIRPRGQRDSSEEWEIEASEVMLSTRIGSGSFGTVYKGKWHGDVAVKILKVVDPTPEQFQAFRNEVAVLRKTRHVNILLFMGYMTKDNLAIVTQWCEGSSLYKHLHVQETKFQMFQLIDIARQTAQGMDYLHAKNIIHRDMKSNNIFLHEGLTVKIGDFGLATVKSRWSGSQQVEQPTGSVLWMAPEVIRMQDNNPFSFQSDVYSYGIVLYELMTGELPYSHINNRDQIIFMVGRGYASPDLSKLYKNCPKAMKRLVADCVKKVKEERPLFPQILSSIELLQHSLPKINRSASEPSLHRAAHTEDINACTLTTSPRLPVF
In turn, `Cc1ccc(NC(=O)c2cccc(C(F)(F)F)c2)cc1-c1cn(C)c(=O)c(N2CCOCC2)n1` [Example 119, N-(4-methyl-3-(4-methyl-6-morpholino-5-oxo-4,5-dihydropyrazin-2-yl)phenyl)-3-(trifluoromethyl)benzamide] gave an IC50 of 0.27 nM. This lies in the sub-nanomolar range.

As for `Cc1ccc(NC(=O)c2cccc(C(F)(F)F)c2)cc1-c1cncc(N2CCOCC2)n1` [Example 118, N-(4-methyl-3-(6-morpholinopyrazin-2-yl)phenyl)-3-(trifluoromethyl)benzamide], the IC50 was 0.308 nM.

In turn, `Cc1ccc(C(=O)Nc2cccc(C(F)(F)F)c2)cc1-c1nc(N2CCOCC2)cc(N2CCOCC2)n1` [Example 14, 3-(4,6-dimorpholinopyrimidin-2-yl)-4-methyl-N-(3-(trifluoromethyl)phenyl)benzamide] registered an IC50 of 0.803 nM. Against the preceding compound, the IC50 is about 2.6-fold higher.

Regarding `Cc1ccc(C(=O)Nc2cccc(C(F)(F)F)c2)cc1-c1ccnc(N2CCOCC2)c1` [Example 63, 4-Methyl-3-(2-morpholinopyridin-4-yl)-N-(3-(trifluoromethyl)phenyl)benzamide], half-maximal inhibition (IC50) was put at 0.508 nM.

In the case of `Cc1ccc(NC(=O)c2cccc(C(F)(F)F)c2)cc1-c1csc(N2CCOCC2)n1` [Example 199, N-(4-methyl-3-(2-morpholinothiazol-4-yl)phenyl)-3-(trifluoromethyl)benzamide], it took 1.29 nM to reach half-maximal inhibition (IC50).

By IC50 is commonly meant the concentration needed to halve the response being measured. High values mean lower potency, low ones higher potency.

Source of the values: patent US9242969B2, “Biaryl amide compounds as kinase inhibitors” (Novartis AG, priority 2013, dated 2016).
